Assay results from ChEMBL document CHEMBL1201862, “PubChem BioAssay data set” (2004).
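Where inhibition never reached the appropriate level, the endpoint shown equals the highest concentration tested. Otherwise, values were interpolated linearly from a five-concentration, 48-hour dose response in 96-well plates. GI50: concentration for 50% inhibition of growth.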 Calls of active or inactive are those of the source. Cut-off read from the data, not from the text of the source: active = GI50 up to about 1.1 µM and inactive = higher.

Assays:
Experiment in all cases: NCI anticancer screen, dose series, 48 h
NCI-H23 = system: NCI-H23
SK-OV-3 = system: SK-OV-3
A549 = system: A549
SW-620 = system: SW-620
HCC 2998 = system: HCC 2998
SK-MEL-5 = system: SK-MEL-5
Malme-3M = system: Malme-3M
UO-31 = system: UO-31
HCT-15 = system: HCT-15
UACC-62 = system: UACC-62
SNB-19 = system: SNB-19
MOLT-4 = system: MOLT-4
OVCAR-5 = system: OVCAR-5
U-251 = system: U-251
SF-295 = system: SF-295
OVCAR-4 = system: OVCAR-4
RXF 393 = system: RXF 393
CCRF-CEM = system: CCRF-CEM
SK-MEL-28 = system: SK-MEL-28
SF-268 = system: SF-268

Structure (SMILES): CN(C)CCNC(=O)c1cc(Cl)cc2cc3ccccc3nc12
- GI50 (NCI-H23): 1390 nM (inactive)
- GI50 (SK-OV-3): 2210 nM (inactive)
- GI50 (A549): 557 nM (active)
- GI50 (SW-620): 519 nM (active)
- GI50 (HCC 2998): 1390 nM (inactive)
- GI50 (SK-MEL-5): 1310 nM (inactive)
- GI50 (Malme-3M): 5730 nM (inactive)
- GI50 (UO-31): 1020 nM (active)
- GI50 (HCT-15): 755 nM
- GI50 (UACC-62): 652 nM (active)
- GI50 (SNB-19): 1330 nM (inactive)
- GI50 (MOLT-4): 396 nM (active)
- GI50 (OVCAR-5): 1150 nM (inactive)
- GI50 (U-251): 1640 nM (inactive)
- GI50 (SF-295): 492 nM (active)
- GI50 (OVCAR-4): 2200 nM (inactive)
- GI50 (RXF 393): 1060 nM (active)
- GI50 (CCRF-CEM): 498 nM (active)
- GI50 (SK-MEL-28): 1760 nM (inactive)
- GI50 (SF-268): 1220 nM (inactive)

Structure (SMILES): Cc1cc(O)c2c(c1O)C(=O)C13C(=C(O)C4C(O)C1C1C(O)C3C(O)=C3C(=O)c5c(O)cc(C)c(O)c5C(=O)C341)C2=O (stereo not given)
- GI50 (NCI-H23): 207 nM (active)
- GI50 (SK-OV-3): 37.8 nM (active)
- GI50 (A549): 31.1 nM (active)
- GI50 (SW-620): 50.7 nM (active)
- GI50 (HCC 2998): 32 nM (active)
- GI50 (SK-MEL-5): 150 nM (active)
- GI50 (Malme-3M): 42.8 nM (active)
- GI50 (UO-31): 39.2 nM (active)
- GI50 (HCT-15): 36.7 nM
- GI50 (UACC-62): 48.9 nM (active)
- GI50 (SNB-19): 668 nM (active)
- GI50 (MOLT-4): 54.1 nM (active)
- GI50 (OVCAR-5): 778 nM (active)
- GI50 (U-251): 21.4 nM (active)
- GI50 (SF-295): 30 nM (active)
- GI50 (OVCAR-4): 385 nM (active)
- GI50 (RXF 393): 49.1 nM (active)
- GI50 (CCRF-CEM): 35 nM (active)
- GI50 (SK-MEL-28): 106 nM (active)
- GI50 (SF-268): 54.2 nM (active)

Structure (SMILES): CN(C)CCOc1cc2c(c3ccccc13)-c1ccccc1C2=O
- GI50 (NCI-H23): 2360 nM (inactive)
- GI50 (SK-OV-3): 7530 nM (inactive)
- GI50 (A549): 9620 nM (inactive)
- GI50 (SW-620): 1390 nM (inactive)
- GI50 (HCC 2998): 1750 nM (inactive)
- GI50 (SK-MEL-5): 1580 nM (inactive)
- GI50 (Malme-3M): 2190 nM (inactive)
- GI50 (UO-31): 1500 nM (inactive)
- GI50 (HCT-15): 1180 nM
- GI50 (UACC-62): 1800 nM (inactive)
- GI50 (SNB-19): 2700 nM (inactive)
- GI50 (MOLT-4): 339 nM (active)
- GI50 (OVCAR-5): 2470 nM (inactive)
- GI50 (U-251): 2160 nM (inactive)
- GI50 (SF-295): 1710 nM (inactive)
- GI50 (OVCAR-4): 1120 nM (active)
- GI50 (RXF 393): 2860 nM (inactive)
- GI50 (CCRF-CEM): 1520 nM (inactive)
- GI50 (SK-MEL-28): 1800 nM (inactive)
- GI50 (SF-268): 1450 nM (inactive)

Structure (SMILES): CN(C1=NCCO1)c1cccc2ccccc12
- GI50 (NCI-H23): > 10000 nM (inactive)
- GI50 (SK-OV-3): > 10000 nM (inactive)
- GI50 (A549): > 10000 nM (inactive)
- GI50 (SW-620): > 10000 nM (inactive)
- GI50 (HCC 2998): > 10000 nM (inactive)
- GI50 (SK-MEL-5): > 10000 nM (inactive)
- GI50 (Malme-3M): > 10000 nM (inactive)
- GI50 (UO-31): > 10000 nM (inactive)
- GI50 (HCT-15): > 10000 nM
- GI50 (UACC-62): > 10000 nM (inactive)
- GI50 (SNB-19): > 10000 nM (inactive)
- GI50 (MOLT-4): > 10000 nM (inactive)
- GI50 (OVCAR-5): > 10000 nM (inactive)
- GI50 (U-251): > 10000 nM (inactive)
- GI50 (SF-295): > 10000 nM (inactive)
- GI50 (OVCAR-4): > 10000 nM (inactive)
- GI50 (RXF 393): > 10000 nM (inactive)
- GI50 (CCRF-CEM): > 10000 nM (inactive)
- GI50 (SK-MEL-28): > 10000 nM (inactive)
- GI50 (SF-268): > 10000 nM (inactive)
